Laboratory results from ChEMBL document CHEMBL5608141, “Identification of compartment-specific drug sensitivities in CRC organoid-stroma co-cultures” (2024).

Legend:
Assay type in all cases: functional, Homo sapiens
Design in all cases: dose or concentration left out as unconfirmed
Colon cancer organoid [1] = experiment: Identification of compartment-specific drug sensitivities in O06 CRC organoid-stroma F06 CAF co-cultures. Organoid is transduced with Lucferase2-P2A-EGFP lentivirus, fibroblast with Renilla-dsRed lentivirus. Dual-Glo Luciferase assay is used to report viability data.
Colon cancer organoid [2] = experiment: Identification of compartment-specific drug sensitivities in O14 CRC organoid-stroma F14 CAF co-cultures. Organoid is transduced with Lucferase2-P2A-EGFP lentivirus, fibroblast with Renilla-dsRed lentivirus. Dual-Glo Luciferase assay is used to report viability data.
Colon cancer organoid [3] = experiment: Identification of compartment-specific drug sensitivities in O20 CRC organoid-stroma F20 CAF co-cultures. Organoid is transduced with Lucferase2-P2A-EGFP lentivirus, fibroblast with Renilla-dsRed lentivirus. Dual-Glo Luciferase assay is used to report viability data.
[4] = Transduced with Lucferase2-P2A-EGFP lentivirus
[5] = Transduced with Renilla-dsRed lentivirus

## C=CC(=O)Nc1ccc2[nH]c(=O)n(C3CCN(Cc4ccc(-c5ccc6c(c5)NC(=O)CO6)cc4)CC3)c2c1 [RL2578]
Colon cancer organoid [1]; [4]
  Cell Viability: 88.4189%
Colon cancer organoid [1]; [5]
  Cell Viability: 104.707%
Colon cancer organoid [2]; [4]
  Cell Viability: 83.2796%
Colon cancer organoid [2]; [5]
  Cell Viability: 87.8699%
Colon cancer organoid [3]; [4]
  Cell Viability: 101.642%
Colon cancer organoid [3]; [5]
  Cell Viability: 98.7435%

## CN(C)CCOc1ccc(-c2nc(-c3ccncc3)c(-c3ccc4c(c3)CC/C4=N\O)[nH]2)cc1 [SB590885]
Colon cancer organoid [1]; [4]
  Cell Viability: 79.2379%
Colon cancer organoid [1]; [5]
  Cell Viability: 96.48%
Colon cancer organoid [2]; [4]
  Cell Viability: 183.636%
Colon cancer organoid [2]; [5]
  Cell Viability: 84.6732%
Colon cancer organoid [3]; [4]
  Cell Viability: 154.959%
Colon cancer organoid [3]; [5]
  Cell Viability: 68.1541%

## CC[C@H](CO)Nc1nc(NCc2ccccc2)c2ncn(C(C)C)c2n1 [SELICICLIB]
Colon cancer organoid [1]; [4]
  Cell Viability: 93.234%
Colon cancer organoid [1]; [5]
  Cell Viability: 112.199%
Colon cancer organoid [2]; [4]
  Cell Viability: 121.256%
Colon cancer organoid [2]; [5]
  Cell Viability: 106.182%
Colon cancer organoid [3]; [4]
  Cell Viability: 126.177%
Colon cancer organoid [3]; [5]
  Cell Viability: 75.3934%

## C[C@@H]1CCc2ncc(F)cc2[C@H]2CCCN2c2ccn3ncc(c3n2)C(=O)N1 [SELITRECTINIB]
Colon cancer organoid [1]; [4]
  Cell Viability: 101.733%
Colon cancer organoid [1]; [5]
  Cell Viability: 118.761%
Colon cancer organoid [2]; [4]
  Cell Viability: 99.8274%
Colon cancer organoid [2]; [5]
  Cell Viability: 100.464%
Colon cancer organoid [3]; [4]
  Cell Viability: 168.559%
Colon cancer organoid [3]; [5]
  Cell Viability: 73.3915%

## Cc1cc(F)c(C(=O)Nc2cccc(-c3nncn3C(C)C)n2)cc1-n1cnc(C2CC2)c1 [SELONSERTIB]
Colon cancer organoid [1]; [4]
  Cell Viability: 89.6649%
Colon cancer organoid [1]; [5]
  Cell Viability: 105.018%
Colon cancer organoid [2]; [4]
  Cell Viability: 143.918%
Colon cancer organoid [2]; [5]
  Cell Viability: 74.3836%
Colon cancer organoid [3]; [4]
  Cell Viability: 141.758%
Colon cancer organoid [3]; [5]
  Cell Viability: 89.2485%

## Cn1cnc2c(F)c(Nc3ccc(Br)cc3Cl)c(C(=O)NOCCO)cc21 [SELUMETINIB]
Colon cancer organoid [1]; [4]
  Cell Viability: 99.2613%
Colon cancer organoid [1]; [5]
  Cell Viability: 98.6384%
Colon cancer organoid [2]; [4]
  Cell Viability: 44.7701%
Colon cancer organoid [2]; [5]
  Cell Viability: 55.8657%
Colon cancer organoid [3]; [4]
  Cell Viability: 54.0546%
Colon cancer organoid [3]; [5]
  Cell Viability: 152.417%

## O=C(O)c1ccc2c(c1)nc(Nc1cccc(Cl)c1)c1ccncc12 [SILMITASERTIB]
Colon cancer organoid [1]; [4]
  Cell Viability: 108.166%
Colon cancer organoid [1]; [5]
  Cell Viability: 80.6873%
Colon cancer organoid [2]; [4]
  Cell Viability: 116.96%
Colon cancer organoid [2]; [5]
  Cell Viability: 107.599%
Colon cancer organoid [3]; [4]
  Cell Viability: 158.324%
Colon cancer organoid [3]; [5]
  Cell Viability: 81.7658%

## N#Cc1cnc(Nc2cc(NC[C@H]3CNCCO3)c(C(F)(F)F)cn2)cn1 [SRA-737]
Colon cancer organoid [1]; [4]
  Cell Viability: 89.9461%
Colon cancer organoid [1]; [5]
  Cell Viability: 120.027%
Colon cancer organoid [2]; [4]
  Cell Viability: 25.2627%
Colon cancer organoid [2]; [5]
  Cell Viability: 122.808%
Colon cancer organoid [3]; [4]
  Cell Viability: 103.573%
Colon cancer organoid [3]; [5]
  Cell Viability: 133.202%

## CN[C@@H]1C[C@H]2O[C@@](C)([C@@H]1OC)n1c3ccccc3c3c4c(c5c6ccccc6n2c5c31)C(=O)NC4 [STAUROSPORINE]
Colon cancer organoid [1]; [4]
  Cell Viability: 0.2458%
Colon cancer organoid [1]; [5]
  Cell Viability: 0.5911%
Colon cancer organoid [2]; [4]
  Cell Viability: 0.5717%
Colon cancer organoid [2]; [5]
  Cell Viability: 0.4831%
Colon cancer organoid [3]; [4]
  Cell Viability: 0.3702%
Colon cancer organoid [3]; [5]
  Cell Viability: 0.5055%

## O=C1c2ccc(Nc3ccc(F)cc3F)cc2CCc2ccc(OC[C@H](O)CO)cc21 [Skepinone-L]
Colon cancer organoid [1]; [4]
  Cell Viability: 115.343%
Colon cancer organoid [1]; [5]
  Cell Viability: 88.0925%
Colon cancer organoid [2]; [4]
  Cell Viability: 166.491%
Colon cancer organoid [2]; [5]
  Cell Viability: 75.8508%
Colon cancer organoid [3]; [4]
  Cell Viability: 88.6485%
Colon cancer organoid [3]; [5]
  Cell Viability: 86.6611%

## CN1CCN(C(=O)C(C)(C)c2ccc(C(=O)Nc3cn4cc(-c5cc(C(C)(C)C)cc(C(C)(C)C)c5)ccc4n3)cc2)CC1 [T3-CLK-N]
Colon cancer organoid [1]; [4]
  Cell Viability: 112.366%
Colon cancer organoid [1]; [5]
  Cell Viability: 80.0588%
Colon cancer organoid [2]; [4]
  Cell Viability: 123.449%
Colon cancer organoid [2]; [5]
  Cell Viability: 101.908%
Colon cancer organoid [3]; [4]
  Cell Viability: 83.0148%
Colon cancer organoid [3]; [5]
  Cell Viability: 112.725%

## CN1CCN(C(=O)C(C)(C)c2ccc(C(=O)Nc3cn4cc(-c5ccncc5)ccc4n3)cc2)CC1 [T3-CLK]
Colon cancer organoid [1]; [4]
  Cell Viability: 27.6026%
Colon cancer organoid [1]; [5]
  Cell Viability: 129.967%
Colon cancer organoid [2]; [4]
  Cell Viability: 20.1131%
Colon cancer organoid [2]; [5]
  Cell Viability: 93.3356%
Colon cancer organoid [3]; [4]
  Cell Viability: 17.3495%
Colon cancer organoid [3]; [5]
  Cell Viability: 291.942%
